Measurements published in patent US20250145589A1, “PYRIDINE DERIVATIVE AND USE THEREOF” (SICHUAN HUIYU PHARMACEUTICAL CO., LTD., priority 2021, published 2025).
Read-outs that look alike come from different tables or passages of the source.

What was measured:
[1] = molecular target: PI3Kα (Homo sapiens (Human), UniProt P42336); experiment: Inhibition of PI3Kα efficacy assay (ADP-Glo kinase assay); format: biochemical; conditions: read-out: PI3Kα inhibitory activity (IC50)
Summary of the method: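 Eight five-fold dilutions of compound (2 mM DMSO stock) tested; kinase reaction with PI and ATP ran 60 min at RT, followed by ADP-Glo and detection reagent steps of 40 min each. Four-parameter logistic fitting gave IC50 values.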

[2] = molecular target: KRAS^G12C-SOS1 (Homo sapiens (Human), UniProt P01116, G12C); experiment: HTRF KRAS G12C/SOS1 binding assay; conditions: Table 5
Summary of the method: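 Compound was serially diluted five-fold over eight points, with a 2 mM DMSO stock. After anti-tag-Tb3+ and anti-tag-XL665 were added, plates were incubated 3 h at 4 °C and read by HTRF (ex 337 nm, em 620/665 nm ratio). IC50 values come from four-parameter variable-slope fits.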

[3] = system: NCI-H358 cells (KRAS G12C mutant); experiment: NCI-H358 cell proliferation inhibition (CellTiter-Glo); format: cell-based; conditions: Homo sapiens, NCI-H358, 72 h; H358 cells (G12C mutation), 3 days, Table 6; read-out: NCI-H358 (IC50)
[4] = molecular target: PI3Kδ (Homo sapiens (Human), UniProt O00329); experiment: Inhibition of PI3Kδ efficacy assay (ADP-Glo kinase assay); format: biochemical; conditions: read-out: PI3Kδ inhibitory activity (IC50)
Summary of the method: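 Luminescent ADP-Glo readout of PI3Kδ: after a 60 min RT reaction with PI/ATP substrate, ATP depletion (40 min) and ADP detection (40 min) steps followed. Compounds tested as eight five-fold serial dilutions; inhibition rates fitted to log(inhibitor) vs. response, variable slope, for IC50.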

KRAS^G12C-SOS1, sequence (P01116-2 other isoform, or with tags, fused parts or gaps G12C): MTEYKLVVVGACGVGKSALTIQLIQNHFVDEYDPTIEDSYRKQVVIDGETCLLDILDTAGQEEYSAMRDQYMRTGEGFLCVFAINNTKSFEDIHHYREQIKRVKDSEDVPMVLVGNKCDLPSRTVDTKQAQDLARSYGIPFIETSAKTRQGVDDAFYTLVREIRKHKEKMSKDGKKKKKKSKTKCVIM
PI3Kα, sequence (P42336 whole entry): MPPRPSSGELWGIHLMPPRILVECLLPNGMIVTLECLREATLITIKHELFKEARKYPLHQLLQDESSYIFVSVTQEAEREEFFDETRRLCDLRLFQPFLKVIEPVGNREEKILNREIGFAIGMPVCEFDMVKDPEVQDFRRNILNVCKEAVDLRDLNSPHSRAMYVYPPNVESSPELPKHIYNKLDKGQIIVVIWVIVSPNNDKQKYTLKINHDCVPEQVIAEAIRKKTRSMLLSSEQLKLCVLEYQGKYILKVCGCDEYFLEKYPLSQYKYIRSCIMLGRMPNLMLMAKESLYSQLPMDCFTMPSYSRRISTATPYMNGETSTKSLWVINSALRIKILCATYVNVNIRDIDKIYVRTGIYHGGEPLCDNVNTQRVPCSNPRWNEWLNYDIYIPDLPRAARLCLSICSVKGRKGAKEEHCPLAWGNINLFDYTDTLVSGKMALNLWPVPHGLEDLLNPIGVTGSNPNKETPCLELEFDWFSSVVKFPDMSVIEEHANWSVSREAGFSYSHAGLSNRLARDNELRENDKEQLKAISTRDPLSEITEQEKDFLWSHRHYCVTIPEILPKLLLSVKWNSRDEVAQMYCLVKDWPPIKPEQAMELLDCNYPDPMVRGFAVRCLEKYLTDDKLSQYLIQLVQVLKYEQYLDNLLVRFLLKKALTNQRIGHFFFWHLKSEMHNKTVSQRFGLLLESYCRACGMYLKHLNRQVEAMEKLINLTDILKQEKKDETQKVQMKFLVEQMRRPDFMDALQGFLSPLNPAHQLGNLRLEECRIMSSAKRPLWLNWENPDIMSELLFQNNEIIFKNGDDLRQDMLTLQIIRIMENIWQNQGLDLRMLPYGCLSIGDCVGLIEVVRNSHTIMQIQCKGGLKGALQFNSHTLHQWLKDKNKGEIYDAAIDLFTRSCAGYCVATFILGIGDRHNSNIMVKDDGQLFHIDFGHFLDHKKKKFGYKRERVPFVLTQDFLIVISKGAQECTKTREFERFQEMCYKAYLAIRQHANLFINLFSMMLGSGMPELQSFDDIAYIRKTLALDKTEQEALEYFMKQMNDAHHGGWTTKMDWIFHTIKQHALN
PI3Kα, sequence (P27986 whole entry partner): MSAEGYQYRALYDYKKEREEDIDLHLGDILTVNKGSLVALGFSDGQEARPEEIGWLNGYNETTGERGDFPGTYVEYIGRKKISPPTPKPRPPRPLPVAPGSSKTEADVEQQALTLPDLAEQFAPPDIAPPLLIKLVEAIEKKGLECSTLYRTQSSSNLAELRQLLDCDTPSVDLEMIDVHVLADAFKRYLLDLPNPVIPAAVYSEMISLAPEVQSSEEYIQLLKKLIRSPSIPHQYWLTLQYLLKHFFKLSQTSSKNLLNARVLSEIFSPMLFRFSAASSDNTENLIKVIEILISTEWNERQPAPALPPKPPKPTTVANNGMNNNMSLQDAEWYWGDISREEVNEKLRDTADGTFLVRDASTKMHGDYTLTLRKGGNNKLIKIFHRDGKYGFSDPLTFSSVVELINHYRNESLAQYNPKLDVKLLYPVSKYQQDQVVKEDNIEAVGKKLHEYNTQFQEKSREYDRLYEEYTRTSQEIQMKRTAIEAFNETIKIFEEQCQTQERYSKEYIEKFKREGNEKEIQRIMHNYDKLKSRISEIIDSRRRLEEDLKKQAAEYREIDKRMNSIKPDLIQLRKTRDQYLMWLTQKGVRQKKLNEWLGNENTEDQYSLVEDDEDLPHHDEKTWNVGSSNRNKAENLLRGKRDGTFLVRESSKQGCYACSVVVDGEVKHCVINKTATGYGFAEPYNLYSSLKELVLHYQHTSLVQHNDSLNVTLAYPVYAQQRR
PI3Kδ, sequence (O00329 whole entry): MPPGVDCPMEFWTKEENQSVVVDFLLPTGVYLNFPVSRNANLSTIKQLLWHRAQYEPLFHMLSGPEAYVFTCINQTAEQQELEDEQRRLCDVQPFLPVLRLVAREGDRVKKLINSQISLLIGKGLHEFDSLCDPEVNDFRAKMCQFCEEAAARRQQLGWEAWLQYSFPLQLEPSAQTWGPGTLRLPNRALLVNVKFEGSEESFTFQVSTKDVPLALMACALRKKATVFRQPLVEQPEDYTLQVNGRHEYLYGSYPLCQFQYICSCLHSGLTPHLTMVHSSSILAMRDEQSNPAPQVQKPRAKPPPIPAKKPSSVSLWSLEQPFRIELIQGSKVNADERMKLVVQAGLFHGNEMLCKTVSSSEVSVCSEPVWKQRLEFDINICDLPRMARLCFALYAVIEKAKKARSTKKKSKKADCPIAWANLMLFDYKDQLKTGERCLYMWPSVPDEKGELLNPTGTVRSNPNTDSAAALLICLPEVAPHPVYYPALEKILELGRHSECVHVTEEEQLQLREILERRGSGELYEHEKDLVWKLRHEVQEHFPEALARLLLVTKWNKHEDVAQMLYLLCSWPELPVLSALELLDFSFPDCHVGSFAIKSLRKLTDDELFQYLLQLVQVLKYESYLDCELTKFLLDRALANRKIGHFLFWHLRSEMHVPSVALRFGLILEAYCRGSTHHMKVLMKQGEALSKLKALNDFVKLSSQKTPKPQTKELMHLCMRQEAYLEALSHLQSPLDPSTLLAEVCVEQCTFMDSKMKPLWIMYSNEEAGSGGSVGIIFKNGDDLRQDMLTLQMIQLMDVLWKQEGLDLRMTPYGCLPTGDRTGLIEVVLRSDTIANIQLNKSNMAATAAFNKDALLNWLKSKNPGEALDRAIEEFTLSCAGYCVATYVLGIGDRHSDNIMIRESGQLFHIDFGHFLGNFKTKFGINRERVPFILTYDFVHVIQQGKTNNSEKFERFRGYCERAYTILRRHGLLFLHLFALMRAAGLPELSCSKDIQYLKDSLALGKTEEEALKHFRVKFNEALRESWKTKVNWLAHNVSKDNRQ
PI3Kδ, sequence (P27986 whole entry partner): as the sequence (P27986 whole entry partner) above

## COc1ncc(-c2ccc3ncnc(N4CCN(C(=O)/C=C/C(C)=O)CC4)c3c2)cc1NS(=O)(=O)c1c(F)cncc1F [Example 102, (E)-3,5-difluoro-N-(2-methoxy-5-(4-(4-(4-oxopent-2-enoyl)piperazin-1-yl)quinazolin-6-yl)pyridin-3-yl)pyridine-4-sulfonamide]
[1]; Table 2
  IC50: 0.0012 µM
[2]
  IC50: 0.141 µM
[3]
  IC50: 0.073 µM
[4]; Table 2
  IC50: 0.0328 µM

## COc1ncc(-c2ccc3ncnc(N4CCN(C(=O)/C=C/C(C)=O)C[C@@H]4C)c3c2)cc1NS(=O)(=O)c1ccccc1F [Example 152, (S,E)-2-fluoro-N-(2-methoxy-5-(4-(2-methyl-4-(4-oxopent-2-enoyl)piperazin-1-yl)quinazolin-6-yl)pyridin-3-yl)benzenesulfonamide]
[1]; Table 4
  IC50: 0.00028 µM
[2]
  IC50: 0.175 µM
[3]
  IC50: 0.0298 µM
[4]; Table 4
  IC50: 0.0155 µM

## COc1ncc(-c2ccc3ncnc(C4CCN(C(=O)/C=C/C(C)=O)CC4)c3n2)cc1NS(=O)(=O)c1c(F)cccc1F [Example 233, (E)-2,6-difluoro-N-(2-methoxy-5-(4-(1-(4-oxopent-2-enoyl)piperidin-4-yl)pyrido[3,2-d]pyrimidin-6-yl)pyridin-3-yl)benzenesulfonamide]
[1]; Table 4
  IC50: 0.004 µM
[2]
  IC50: 0.204 µM
[3]
  IC50: 0.005 µM
[4]; Table 4
  IC50: 0.0313 µM

## COc1ncc(-c2ccc3ncnc(N4CCC5(CC4)CN(C(=O)/C=C/C(C)=O)C5)c3c2)cc1NS(=O)(=O)c1c(F)cc(F)cc1F [Example 101, (E)-2,4,6-trifluoro-N-(2-methoxy-5-(4-(2-(4-oxopent-2-enoyl)-2,7-diazaspiro[3.5]nonan-7-yl)quinazolin-6-yl)pyridin-3-yl)benzenesulfonamide]
[1]; Table 2
  IC50: 0.0099 µM
[2]
  IC50: 0.198 µM
[3]
  IC50: 0.0116 µM
[4]; Table 2
  IC50: 0.0336 µM

## COc1ncc(-c2ccc3ncnc(N4CCN(C(=O)/C=C/C(C)=O)CC4)c3c2)cc1NS(=O)(=O)c1c(F)cc(F)cc1F [Example 99, (E)-2,4,6-trifluoro-N-(2-methoxy-5-(4-(4-(4-oxopent-2-enoyl)piperazin-1-yl)quinazolin-6-yl)pyridin-3-yl)benzenesulfonamide]
[1]; Table 2
  IC50: 0.006 µM
[2]
  IC50: 0.188 µM
[3]
  IC50: 0.0096 µM
[4]; Table 2
  IC50: 0.0079 µM

## COc1ncc(-c2ccc3ncnc(N4CCN(C(=O)/C=C/C(C)=O)CC4)c3c2)cc1NS(=O)(=O)c1ccc(C(F)(F)F)cc1F [Example 124, (E)-2-fluoro-N-(2-methoxy-5-(4-(4-(4-oxopent-2-enoyl)piperazin-1-yl)quinazolin-6-yl)pyridin-3-yl)-4-(trifluoromethyl)benzenesulfonamide]
[1]; Table 2
  IC50: 0.0044 µM
[2]
  IC50: 0.73 µM
[3]
  IC50: 0.0197 µM
[4]; Table 2
  IC50: 0.0614 µM

## COc1ncc(-c2ccc3ncnc(N4C[C@@H](C)N(C(=O)/C=C/C(C)=O)C[C@@H]4C)c3c2)cc1NS(=O)(=O)c1c(F)cccc1F [Example 51, N-(5-(4-((2S,5R)-2,5-dimethyl-4-((E)-4-oxopent-2-enoyl)piperazin-1-yl)quinazolin-6-yl)-2-methoxypyridin-3-yl)-2,6-difluorobenzene-sulfonamide]
[1]; Table 2
  IC50: 0.0056 µM
[2]
  IC50: 0.942 µM
[3]
  IC50: 0.0487 µM
[4]; Table 2
  IC50: 0.0192 µM

## COc1ncc(-c2ccc3ncnc(N4CCN(C(=O)/C=C/C(C)=O)CC4)c3n2)cc1NS(=O)(=O)c1cccc(F)c1F [Example 218, (E)-2,3-difluoro-N-(2-methoxy-5-(4-(4-(4-oxopent-2-enoyl)piperazin-1-yl)pyrido[3,2-d]pyrimidin-6-yl)pyridin-3-yl) benzene-sulfonamide]
[1]; Table 4
  IC50: 0.0026 µM
[2]
  IC50: 0.292 µM
[3]
  IC50: 0.0256 µM
[4]; Table 4
  IC50: 0.0108 µM

## COc1ncc(-c2ccc3ncnc(N4CCN(C(=O)/C=C/C(C)=O)CC4)c3n2)cc1NS(=O)(=O)c1c(F)cc(F)cc1F [Example 219, (E)-2,4-trifluoro-N-(2-methoxy-5-(4-(4-(4-oxopent-2-enoyl)piperazin-1-yl)pyrido[3,2-d]pyrimidin-6-yl)pyridin-3-yl) benzene-sulfonamide]
[1]; Table 4
  IC50: 0.00091 µM
[2]
  IC50: 0.151 µM
[3]
  IC50: 0.0073 µM
[4]; Table 4
  IC50: 0.0116 µM

## COc1ncc(-c2ccc3ncnc(N4CCN(C(=O)/C=C/C(C)=O)[C@@H](CC#N)C4)c3c2)cc1NS(=O)(=O)c1c(F)cccc1F [Example 116, (S,E)-N-(5-(4-(3-(cyanomethyl)-4-(4-oxopent-2-enoyl)piperazin-1-yl)quinazolin-6-yl)-2-methoxypyridin-3-yl)-2,6-difluorobenzenesulfonamide]
[1]; Table 2
  IC50: 0.0018 µM
[2]
  IC50: 1.57 µM
[3]
  IC50: 0.0959 µM
[4]; Table 2
  IC50: 0.027 µM

## COc1ncc(-c2ccc3ncnc(C4CCN(C(=O)/C=C/C(C)=O)CC4)c3n2)cc1NS(=O)(=O)c1ccccc1F [Example 232, (E)-2-fluoro-N-(2-methoxy-5-(4-(1-(4-oxopent-2-enoyl)piperidin-4-yl)pyrido[3,2-d]pyrimidin-6-yl)pyridin-3-yl)benzenesulfonamide]
[1]; Table 4
  IC50: 0.002 µM
[2]
  IC50: 0.269 µM
[3]
  IC50: 0.0087 µM
[4]; Table 4
  IC50: 0.0146 µM

## COc1ncc(-c2ccc3ncnc(N4CCC5(CC4)CN(C(=O)/C=C/C(C)=O)C5)c3c2)cc1NS(=O)(=O)c1ccccc1F [Example 150, (E)-2-fluoro-N-(2-methoxy-5-(4-(2-(4-oxopent-2-enoyl)-2,7-diazaspiro[3.5]nonan-7-yl)quinazolin-6-yl)pyridin-3-yl)benzenesulfonamide]
[1]; Table 4
  IC50: 0.00011 µM
[2]
  IC50: 0.236 µM
[3]
  IC50: 0.0164 µM
[4]; Table 4
  IC50: 0.0107 µM

## COc1ncc(-c2ccc3ncnc(N4CCC5(CC4)CN(C(=O)/C=C/C(C)=O)C5)c3c2)cc1NS(=O)(=O)c1ccc(F)cc1 [Example 161, (E)-4-fluoro-N-(2-methoxy-5-(4-(2-(4-oxopent-2-enoyl)-2,7-diazaspiro[3.5]nonan-7-yl)quinazolin-6-yl)pyridin-3-yl)benzenesulfonamide]
[1]; Table 4
  IC50: 0.00082 µM
[2]
  IC50: 0.284 µM
[3]
  IC50: 0.0434 µM
[4]; Table 4
  IC50: 0.0099 µM

## COc1ncc(-c2ccc3ncnc(N4CCC5(CC4)CN(C(=O)/C=C/C(C)=O)C5)c3c2)cc1NS(=O)(=O)c1sc(C)nc1C [Example 178, (E)-N-(2-methoxy-5-(4-(2-(4-oxopent-2-enoyl)-2,7-diazaspiro[3.5]nonan-7-yl)quinazolin-6-yl)pyridin-3-yl)-2,4-dimethyl-thiazole-5-sulfonamide]
[1]; Table 4
  IC50: 0.0205 µM
[2]
  IC50: 0.213 µM
[3]
  IC50: 0.0253 µM
[4]; Table 4
  IC50: 0.0092 µM

## COc1ncc(-c2ccc3ncnc(N4CCN(C(=O)/C=C/C(C)=O)CC4)c3n2)cc1NS(=O)(=O)c1c(F)cccc1F [Example 131, (E)-2,6-difluoro-N-(2-methoxy-5-(4-(4-(4-oxopent-2-enoyl)piperazin-1-yl)pyrido[3,2-d]pyrimidin-6-yl)pyridin-3-yl)benzenesulfonamide]
[1]; Table 3
  IC50: 0.0016 µM
[2]
  IC50: 0.2 µM
[3]
  IC50: 0.0052 µM
[4]; Table 3
  IC50: 0.0137 µM

## COc1ncc(-c2ccc3ncnc(N4CC5CCC(C4)N5C(=O)/C=C/C(C)=O)c3c2)cc1NS(=O)(=O)c1c(F)cc(F)cc1F [Example 155]
[1]; Table 4
  IC50: 0.0003 µM
[2]
  IC50: 0.462 µM
[3]
  IC50: 0.0403 µM
[4]; Table 4
  IC50: 0.0531 µM

## COc1ncc(-c2ccc3ncnc(N4CCC5(CC4)CN(C(=O)/C=C/C(C)=O)C5)c3c2)cc1NS(=O)(=O)c1c(F)cccc1F [Example 49, (E)-2,6-difluoro-N-(2-methoxy-5-(4-(2-(4-oxopent-2-enoyl)-2,7-diazaspiro[3.5]nonan-7-yl)quinazolin-6-yl)pyridin-3-yl) benzenesulfonamide]
[1]; Table 2
  IC50: 0.0026 µM
[2]
  IC50: 0.225 µM
[3]
  IC50: 0.032 µM
[4]; Table 2
  IC50: 0.0149 µM
